Results on seven compounds are retold here after publication PMC7763008, “Antimicrobial, Anticancer and Multidrug-Resistant Reversing Activity of Novel Oxygen-, Sulfur- and Selenoflavones and Bioisosteric Analogues” (Pharmaceuticals, 2020).

Structures are written as SMILES. Read-outs that look alike come from different tables or passages of the source. Where only a bound is given, the exact number is not on record here.

The test system of data set [1] is Colo 205 human colonic adenocarcinoma cell line (doxorubicin-sensitive). Kind of data set: MTT antiproliferative activity assay, Colo 205. Particulars: 5 × 10^3 cells/well. Format: cell-based. The source says: (§1) Three cell lines have been used in this work: (i), the doxorubicin-sensitive Colo 205 (ATCC-CCL-222) human colonic adenocarcinoma cell line; (ii) the multidrug resistant Colo 320/MDR-LRP expressing P-gp (MDR1)-LRP (ATCC-CCL-220.1) human colonic adenocarcinoma cell line; and the MRC-5 human embryonal lung fibroblast cell line (ATCC CCL-171). The three cell lines were purchased from LGC Promochem, Teddington, UK.
(§2) Colo 205 (ATCC-CCL-222) and Colo 320/MDR-LRP expressing P-gp (MDR1)-LRP (ATCC-CCL-220.1 human colon adenocarcinoma cell lines. As previously described, the cells were cultured in RPMI 1640 medium supplemented with 10% heat-inactivated fetal bovine serum, 2 mM L-glutamine, 1 mM Na-pyruvate, and 100 mM Hepes. The cell lines were incubated at 37 °C, in a 5% CO2, 95% air atmosphere. The semi-adherent human colon cancer cells were detached with Trypsin-Versene (EDTA) solution for 5 min at 37 °C [20].
(§3) The influence of synthetic flavonoid derivatives (compounds 1–6) on the doxorubicin-sensitive Colo 205, multidrug resistant Colo 320/MDR-LRP adenocarcinoma and MRC-5 cell lines was evaluated employing the MTT metabolic activity assay, using a procedure described in Supplementary Materials and in previous works, and applying the appropriate formulas to calculate the cell growth inhibition and the selectivity index (SI), as well as the criterion to determine whether a compound is strongly or moderately selective.
(§4) Briefly, the serial dilutions in culture medium required for the MTT metabolic assay (ranging from 100 to 0.195 µM) were freshly prepared before the assay. The stock solutions (10 mM) of the tested compounds were prepared in pure DMSO and the final concentration of DMSO was adjusted to less than 1% threshold in the biological experiments. The concentration-dependent growth inhibition was evaluated in 96-well flat-bottomed microtiter plates. Doxorubicin (DOXO) was employed as a positive control whilst culture medium containing cells was used as a negative control.
(§5) In the case of the colonic adenocarcinoma cells, two-fold serial dilutions of the flavone compounds were prepared in 100 μL of RPMI 1640, horizontally. Furthermore, the semi-adherent colonic adenocarcinoma cells were treated with Trypsin-Versene (EDTA) solution. Then, cells were adjusted to a density of 5 × 10^3/well for antiproliferative assay and 1 × 10^4/well for the estimation of cytotoxic activity in 100 µL of medium. The cells were added to each well except to the medium control wells. The culture plates were subsequently incubated at 37 °C for 24 h and 72 h, respectively; 20 μL of MTT solution (thiazolyl blue tetrazolium bromide, Sigma) were added to each well from MTT stock solution (5 mg /mL) after incubation. After 4 h of incubation at 37 °C, 100 μL of sodium dodecyl sulfate (SDS) solution (10% in 0.01 M HCl) was added to each well and all plates were incubated at 37 °C overnight. Finally, cell growth was determined by measuring the optical density (OD) at 540 nm (ref. 630 nm) with Multiscan EX ELISA reader (Thermo Labsystems, Cheshire, WA, USA).
(§6) The inhibition of the cell growth was determined according to the formula mentioned elsewhere. Finally, the cell viability and IC50 values for every tested compound and doxorubicin were calculated using GraphPad Prism, version 5.03.

Data set [2] concerns Staphylococcus carnosus. Kind of data set: Antibacterial growth assay, S. carnosus. Type of data set: cell-based. Particulars: highest concentration of 200 µM. As to the method: (§7) The antimicrobial activities of the compounds were determined according to the protocol described in the literature, employing a Universal Microplate Reader, EL800, Biotech Instruments, Inc. Highland Park, Winooski, VT, USA [23, 24, 25].
(§8) In short words, compounds were dissolved in DMSO and later diluted in the adequate growth media to be evaluated at the final concentrations of 50, 100, 150, and 200 µM. Nutrient Luria Bertani (LB) broth, bacterial basic media, Sabouraud Dextrose (SD), and Yeast Peptone Dextrose (YPD) were exploited as media for Escherichia coli, Staphylococcus carnosus, Candida albicans, and Saccharomyces cerevisiae, respectively. In all cases, the final concentration of DMSO was 1% or less. A mixture of penicillin, streptomycin, and amphotericin B (4 U, 0.4 µg/mL and 10 µg/mL, respectively) was employed as positive control for S. carnosus and E. coli, while ketoconazole was utilized as the positive control for C. albicans and S. cerevisiae. The untreated culture in medium was employed as the negative control for each organism; 1% DMSO stock solution was used as a solvent control. All experiments were performed in triplicates and on three independent occasions (n = 9).

Data set [3] deals with Colo 320/MDR-LRP human colonic adenocarcinoma cell line (multidrug resistant). Kind of data set: MTT antiproliferative activity assay, Colo 320. Type of data set: cell-based. Particulars: 5 × 10^3 cells/well, read-out: Antiproliferative activity, B—Colo 320 IC50.
Source text: as §1, §2, §3, §4, §5, §6

In data set [4] the test system is Escherichia coli. Kind of data set: Antibacterial growth assay, E. coli. Format: cell-based. Particulars: highest concentration (200 µM; not restated for E. coli). As to the method:
as §7, §8

Data set [5] is described as follows: MTT cytotoxic activity assay, MRC-5. Format: cell-based. Particulars: human.
Source text: as §1
MRC-5 human embryonal lung fibroblast cell line (ATCC CCL-171). As previously described, the cells were cultured in Eagle’s Minimal Essential Medium (EMEM, containing 4.5 g/L of glucose) supplemented with a non-essential amino acid mixture, a selection of vitamins and 10% heat-inactivated fetal bovine serum. The cell lines were incubated at 37 °C, in a 5% CO2, 95% air atmosphere.
as §3, §4
Prior to the experiments, the adherent human embryonal lung fibroblasts (MRC-5) were cultured in flat-bottomed microtiter 96-well plates in an EMEM media supplemented with 10% heat-inactivated fetal bovine serum. Cells were seeded at a density of 10.000 cells per well for 24 h before the beginning of the experiment. The cells were cultured at 37 °C in the humidified cell incubator with the 5% of CO2 and 95% air environment. The medium was subsequently removed from the plates containing the cells, and the dilutions of tested compounds, previously made in a separate micro-titration plate, were added to the cells (at final volume equal to 200 μL).
as §6

Data set [6] deals with Colo 205 human colonic adenocarcinoma cell line (doxorubicin-sensitive). Kind of data set: MTT cytotoxic activity assay, Colo 205. Particulars: COLO 205, read-out: Cytotoxic activity, A—Colo 205 IC50. Type of data set: cell-based.
Source text: as §1, §2, §3, §4, §5, §6

The test system of data set [7] is Colo 320/MDR-LRP human colonic adenocarcinoma cell line (multidrug resistant). Kind of data set: MTT cytotoxic activity assay, Colo 320. Type of data set: cell-based.
Source text: as §1, §2, §3, §4, §5, §6

In data set [8] the target is P-gp (ABCB1) efflux pump in MDR Colo 320 colon adenocarcinoma cells (Homo sapiens, UniProt P08183). Kind of data set: Rhodamine 123 accumulation assay (MDR efflux pump inhibition, flow cytometry). Particulars: for FAR (fluorescence activity ratio): MDR Colo 320 vs sensitive Colo 205; for FAR Quotient (%): FAR of compound / FAR of verapamil (20 μM) x 100; for Increase in efflux pump inhibitory activity of naphthyl vs corresponding phenyl derivative: naphthyl-substituted vs phenyl-substituted chalcogen flavone, 20 µM data.
Procedure: The P-glycoprotein (P-gp) inhibitory properties of the tested flavone derivatives were evaluated in a rhodamine R123 accumulation assay in two different concentrations.
This is a fluorescence-based detection assay which uses verapamil as a reference inhibitor of P-gp efflux pump. […] Compounds (1 μL and 10 μL from a stock solution of 1 mM) were added to the medium to achieve solutions with final concentrations of 2 μM and 20 μM respectively, followed by incubation of the sample for 10 min at room temperature. […] The fluorescence intensity of the cell population was measured with a Partec CyFlow flow cytometer (Partec, Munster, Germany). Verapamil (20 μM) was employed as a positive control. […] The fluorescence activity ratio (FAR) was calculated employing the following equation [20, 26]:FAR = (MDRtreated/MDRcontrol)/(sensitivetreated/ sensitivecontrol)(1)
FAR Quotient % was calculated as follows:Quotient = (FARcompound/FARverapamil) × 100(2)

Data set [9] concerns S. feltiae. Kind of data set: Nematicidal activity assay. Particulars: Steinernema feltiae; for viability at 200 µM: read-out: Viability of the nematodes; for IC50: in Figure 2. Format: in vivo. As to the method:
The soil nematodes S. feltiae were freshly purchased for experiment from Sautter and Stepper GmbH (Ammerbuch, Germany) and stored at 4 °C in the dark. The assay was performed according to the protocols described in the literature. Results were expressed as mean ± standard deviation (SD) and their statistical significance values were determined by one-way ANOVA followed by Tukey’s multiple comparison test. To consider data statistically significant, the p value should be ≤ 0.05.

Where [10] appears, read: COLO 320, read-out: Cytotoxic activity, B—Colo 320 IC50.
The mark [11] stands for this setting: MTT, 1 × 10^4 cells/well, Colo 320, read-out: Cytotoxic activity, B—Colo 320 IC50.
[12] abbreviates: MTT, MRC-5 normal lung fibroblasts, read-out: Cytotoxic activity, C—MRC-5 IC50.

Sequence of P-gp (ABCB1) efflux pump in MDR Colo 320 colon adenocarcinoma cells (P08183 whole entry): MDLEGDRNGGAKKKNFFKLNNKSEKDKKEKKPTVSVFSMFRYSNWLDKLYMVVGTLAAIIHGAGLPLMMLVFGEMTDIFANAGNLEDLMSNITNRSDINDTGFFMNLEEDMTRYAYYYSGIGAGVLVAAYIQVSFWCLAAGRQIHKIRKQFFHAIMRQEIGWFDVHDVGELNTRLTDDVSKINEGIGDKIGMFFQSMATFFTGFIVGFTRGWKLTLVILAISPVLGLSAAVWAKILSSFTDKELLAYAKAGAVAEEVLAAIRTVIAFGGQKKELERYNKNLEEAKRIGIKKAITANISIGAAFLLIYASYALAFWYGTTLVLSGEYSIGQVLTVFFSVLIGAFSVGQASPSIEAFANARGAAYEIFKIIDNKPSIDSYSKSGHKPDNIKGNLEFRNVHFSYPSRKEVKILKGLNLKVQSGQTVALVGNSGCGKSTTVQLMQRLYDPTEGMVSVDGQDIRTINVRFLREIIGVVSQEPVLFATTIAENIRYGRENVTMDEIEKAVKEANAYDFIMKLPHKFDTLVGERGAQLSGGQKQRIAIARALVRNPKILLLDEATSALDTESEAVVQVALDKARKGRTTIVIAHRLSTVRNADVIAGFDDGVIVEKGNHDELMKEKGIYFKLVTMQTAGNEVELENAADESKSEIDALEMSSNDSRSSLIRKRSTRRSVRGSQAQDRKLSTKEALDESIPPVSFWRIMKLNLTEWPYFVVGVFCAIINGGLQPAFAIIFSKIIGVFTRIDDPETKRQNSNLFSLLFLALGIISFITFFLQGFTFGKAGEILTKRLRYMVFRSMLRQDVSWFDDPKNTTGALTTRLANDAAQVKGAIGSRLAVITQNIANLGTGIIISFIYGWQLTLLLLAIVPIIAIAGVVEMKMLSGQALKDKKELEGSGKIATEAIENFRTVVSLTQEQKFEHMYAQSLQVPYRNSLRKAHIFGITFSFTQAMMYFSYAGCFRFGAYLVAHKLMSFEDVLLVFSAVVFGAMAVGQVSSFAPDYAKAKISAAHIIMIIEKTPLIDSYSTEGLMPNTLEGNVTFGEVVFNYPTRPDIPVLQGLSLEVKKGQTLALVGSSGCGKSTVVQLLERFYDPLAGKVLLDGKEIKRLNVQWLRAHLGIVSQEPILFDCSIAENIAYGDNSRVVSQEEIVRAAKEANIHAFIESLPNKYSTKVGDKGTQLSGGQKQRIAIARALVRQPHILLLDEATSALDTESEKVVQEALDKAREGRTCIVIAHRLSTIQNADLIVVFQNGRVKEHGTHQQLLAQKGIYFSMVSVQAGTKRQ

As to `COc1ccc(-c2sc3ccccc3c(=O)c2CC(S(=O)(=O)C(F)(F)F)S(=O)(=O)C(F)(F)F)cc1` [Compound 2], the IC50 is more than 100 µM in data set [1]; more than 100 µM in data set [3]; more than 100 µM in [5]; more than 100 µM in data set [6]; more than 100 µM in data set [7] (setting [10]); 54.98 ± 0.143 µM in [9]. Besides, the inhibition at 200 µM in data set [2] came out at 47%; in data set [4], 42%. Besides, the entries for the “FAR (fluorescence activity ratio)” value in data set [8] (2 μM compound) and in data set [8] (20 μM) were 0.97 and 1.89, respectively. Moreover, the “FAR Quotient (%)” value in [8] (2 μM compound) was found to be 29.67%; in [8] (20 μM), 57.83%. The viability at 200 µM in data set [9] (highest concentration (200 µM)) turned out to be 24%.
With `COc1ccc2cc(-c3oc4ccccc4c(=O)c3CC(S(=O)(=O)C(F)(F)F)S(=O)(=O)C(F)(F)F)ccc2c1` [Compound 4], the IC50 in [1], in [3], in data set [5], in data set [6] and in data set [7] (setting [10]) was more than 100 µM throughout. For the same compound, the inhibition at 200 µM in data set [2] stood at 37%; in [4] it was 45%. The “FAR (fluorescence activity ratio)” value was determined as 1.48 in data set [8] (2 μM compound) and 4.81 in data set [8] (20 μM). The “FAR Quotient (%)” value in [8] (2 μM compound) is 45.42%; in data set [8] (20 μM), 147.50%. Moreover, the “Increase in efflux pump inhibitory activity of naphthyl vs corresponding phenyl derivative” value in data set [8] was 3.14 fold.
As to `COc1cccc2c1C(=O)c1c(O)c3c(c(O)c1C2=O)C[C@@](O)(C(=O)CO)C[C@@H]3O[C@H]1C[C@H](N)[C@H](O)[C@H](C)O1` [DOXO, Doxorubicin, reference compound], the IC50 is 0.24 µM in [1]; 0.14 µM in data set [3]; more than 10 µM in data set [5] (MRC-5 embryonal lung fibroblast cells, MTT, MRC-5 normal lung fibroblasts, read-out: Cytotoxic activity, C—MRC-5 IC50); 1.56 µM in data set [6]; 6.45 µM in data set [7] (setting [11]).
Take `COc1ccc2cc(-c3[se]c4ccccc4c(=O)c3CC(S(=O)(=O)C(F)(F)F)S(=O)(=O)C(F)(F)F)ccc2c1` [Compound 6, bis(triflyl) selenoflavone]: the IC50 in [1] is more than 100 µM; in [3], more than 100 µM; in data set [5] (setting [12]) it was more than 100 µM; in data set [7] (setting [11]), more than 100 µM; in data set [9] it was 80.62 ± 0.142 µM. Further, the “FAR (fluorescence activity ratio)” value in data set [8] (2 μM compound) is 1.14; in data set [8] (20 μM) it was 4.67. The “FAR Quotient (%)” value in data set [8] (2 μM compound) is recorded as 34.92%; in [8] (20 μM), 143.33%. The “Increase in efflux pump inhibitory activity of naphthyl vs corresponding phenyl derivative” value in [8] stood at 3.23 fold. Besides, the viability at 200 µM in data set [9] was 26%.
Take `COc1ccc2cc(-c3sc4ccccc4c(=O)c3CC(S(=O)(=O)C(F)(F)F)S(=O)(=O)C(F)(F)F)ccc2c1` [Compound 5]: the IC50 in data set [1], in [3], in data set [5], in data set [6] and in data set [7] (setting [10]) was more than 100 µM in each case. In addition, the values for the inhibition at 200 µM in data set [2] and in data set [4] were 47% and 39%, respectively. Further, the entries for the “FAR (fluorescence activity ratio)” value in data set [8] (2 μM compound) and in data set [8] (20 μM) were 1.95 and 8.61, respectively. Besides, the entries for the “FAR Quotient (%)” value in [8] (2 μM compound) and in data set [8] (20 μM) were 59.92% and 264.17%, respectively. The “P-gp inhibition relative to the reference verapamil” value in [8] (20 µM) amounted to 2.64 fold. Besides, the “Increase in efflux pump inhibitory activity of naphthyl vs corresponding phenyl derivative” value in [8] is 4.57 fold.
As for `COc1ccc(-c2oc3ccccc3c(=O)c2CC(S(=O)(=O)C(F)(F)F)S(=O)(=O)C(F)(F)F)cc1` [Compound 1], the IC50 in data set [1] was more than 100 µM; in data set [3], more than 100 µM; in data set [5] it was more than 100 µM; in data set [6], more than 100 µM; in data set [7] (setting [10]) it was more than 100 µM; in [9] it was 23 ± 0.297 µM. In data set [4], this compound came in with an inhibition at 200 µM of 30%. Also, the “FAR (fluorescence activity ratio)” value in data set [8] (2 μM compound) was determined as 1.14; in [8] (20 μM), 1.53. The “FAR Quotient (%)” value in data set [8] (2 μM compound) worked out at 34.92%; in [8] (20 μM), 46.92%. For the same compound, the viability at 200 µM in data set [9] (highest concentration (200 µM)) amounted to 30%.
As for `COc1ccc(-c2[se]c3ccccc3c(=O)c2CC(S(=O)(=O)C(F)(F)F)S(=O)(=O)C(F)(F)F)cc1` [Compound 3], the IC50 in data set [1] was more than 100 µM; in data set [3], more than 100 µM; in data set [5] (setting [12]), more than 100 µM; in [7] (setting [11]), more than 100 µM; in data set [9], 41.94 ± 0.286 µM. The inhibition at 200 µM in data set [2] worked out at 57%; in data set [4], 49%. In addition, the “FAR (fluorescence activity ratio)” value in data set [8] (2 μM compound) was 1.06; in data set [8] (20 μM), 1.45. Moreover, the “FAR Quotient (%)” value was found to be 32.58% in [8] (2 μM compound) and 44.33% in [8] (20 μM). In addition, the viability at 200 µM in [9] came out at 29%.
